Measured values taken from ChEMBL document CHEMBL4373715, “Discovery and Biological Evaluations of Halogenated 2,4-Diphenyl Indeno[1,2-b]pyridinol Derivatives as Potent Topoisomerase IIα-Targeted Chemotherapeutic Agents for Breast Cancer” (J Med Chem, 2019).

Legend:
[1] = system: HCT-15; assay: Antiproliferative activity against human HCT15 cells measured after 72 hrs by EZ-Cytox assay; assay type: functional, cell-based; conditions: HCT-15, 72 h
[2] = target: T1, DNA topoisomerase 1 (Homo sapiens) (UniProt P11387); assay: Inhibition of recombinant human topoisomerase 1-mediated relaxation of supercoiled pBR322 DNA at 20 uM measured after 30 mins by ethidium bromide staining based agarose gel electrophoresis relative to control
T1 sequence (whole entry): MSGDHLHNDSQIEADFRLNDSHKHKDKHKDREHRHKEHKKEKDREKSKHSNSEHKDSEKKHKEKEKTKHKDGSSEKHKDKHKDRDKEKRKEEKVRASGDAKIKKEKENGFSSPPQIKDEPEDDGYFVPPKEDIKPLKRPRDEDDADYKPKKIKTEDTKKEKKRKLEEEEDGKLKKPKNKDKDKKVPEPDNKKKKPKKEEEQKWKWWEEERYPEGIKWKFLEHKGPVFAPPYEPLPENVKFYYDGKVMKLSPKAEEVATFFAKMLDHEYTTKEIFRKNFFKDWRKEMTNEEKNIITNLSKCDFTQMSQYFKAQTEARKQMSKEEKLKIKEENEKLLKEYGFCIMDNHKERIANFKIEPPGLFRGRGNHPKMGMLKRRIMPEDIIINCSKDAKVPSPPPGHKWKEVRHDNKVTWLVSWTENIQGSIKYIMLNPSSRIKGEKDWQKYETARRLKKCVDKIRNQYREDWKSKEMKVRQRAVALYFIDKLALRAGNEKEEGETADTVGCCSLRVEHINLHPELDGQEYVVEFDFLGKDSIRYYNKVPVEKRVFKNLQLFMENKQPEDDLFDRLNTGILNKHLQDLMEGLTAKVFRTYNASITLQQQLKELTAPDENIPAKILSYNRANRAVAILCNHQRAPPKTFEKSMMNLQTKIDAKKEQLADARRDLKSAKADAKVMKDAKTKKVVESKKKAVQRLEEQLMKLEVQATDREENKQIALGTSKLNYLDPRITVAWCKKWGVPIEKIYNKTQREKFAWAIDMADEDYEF

[3] = system: T47D; assay: Antiproliferative activity against human T47D cells measured after 72 hrs by EZ-Cytox assay; assay type: functional, cell-based
[4] = system: DU-145; assay: Antiproliferative activity against human DU145 cells measured after 72 hrs by EZ-Cytox assay; assay type: functional, cell-based; conditions: DU-145, 72 h
[5] = target: T1, DNA topoisomerase 1 (Homo sapiens); assay: Inhibition of recombinant human topoisomerase 1-mediated relaxation of supercoiled pBR322 DNA at 100 uM measured after 30 mins by ethidium bromide staining based agarose gel electrophoresis relative to control
[6] = target: DNA topoisomerase 2-alpha (Homo sapiens) (UniProt P11388); assay: Inhibition of recombinant human topoisomerase 2alpha-mediated relaxation of supercoiled pBR322 DNA at 100 uM measured after 30 mins by ethidium bromide staining based agarose gel electrophoresis relative to control
[7] = system: HeLa; assay: Antiproliferative activity against human HeLa cells measured after 72 hrs by EZ-Cytox assay; assay type: functional, cell-based
[8] = target: DNA topoisomerase 2-alpha (Homo sapiens) (UniProt P11388); assay: Inhibition of recombinant human topoisomerase 2alpha-mediated relaxation of supercoiled pBR322 DNA at 20 uM measured after 30 mins by ethidium bromide staining based agarose gel electrophoresis relative to control

Chain of DNA topoisomerase 2-alpha (Homo sapiens) (P11388 whole entry): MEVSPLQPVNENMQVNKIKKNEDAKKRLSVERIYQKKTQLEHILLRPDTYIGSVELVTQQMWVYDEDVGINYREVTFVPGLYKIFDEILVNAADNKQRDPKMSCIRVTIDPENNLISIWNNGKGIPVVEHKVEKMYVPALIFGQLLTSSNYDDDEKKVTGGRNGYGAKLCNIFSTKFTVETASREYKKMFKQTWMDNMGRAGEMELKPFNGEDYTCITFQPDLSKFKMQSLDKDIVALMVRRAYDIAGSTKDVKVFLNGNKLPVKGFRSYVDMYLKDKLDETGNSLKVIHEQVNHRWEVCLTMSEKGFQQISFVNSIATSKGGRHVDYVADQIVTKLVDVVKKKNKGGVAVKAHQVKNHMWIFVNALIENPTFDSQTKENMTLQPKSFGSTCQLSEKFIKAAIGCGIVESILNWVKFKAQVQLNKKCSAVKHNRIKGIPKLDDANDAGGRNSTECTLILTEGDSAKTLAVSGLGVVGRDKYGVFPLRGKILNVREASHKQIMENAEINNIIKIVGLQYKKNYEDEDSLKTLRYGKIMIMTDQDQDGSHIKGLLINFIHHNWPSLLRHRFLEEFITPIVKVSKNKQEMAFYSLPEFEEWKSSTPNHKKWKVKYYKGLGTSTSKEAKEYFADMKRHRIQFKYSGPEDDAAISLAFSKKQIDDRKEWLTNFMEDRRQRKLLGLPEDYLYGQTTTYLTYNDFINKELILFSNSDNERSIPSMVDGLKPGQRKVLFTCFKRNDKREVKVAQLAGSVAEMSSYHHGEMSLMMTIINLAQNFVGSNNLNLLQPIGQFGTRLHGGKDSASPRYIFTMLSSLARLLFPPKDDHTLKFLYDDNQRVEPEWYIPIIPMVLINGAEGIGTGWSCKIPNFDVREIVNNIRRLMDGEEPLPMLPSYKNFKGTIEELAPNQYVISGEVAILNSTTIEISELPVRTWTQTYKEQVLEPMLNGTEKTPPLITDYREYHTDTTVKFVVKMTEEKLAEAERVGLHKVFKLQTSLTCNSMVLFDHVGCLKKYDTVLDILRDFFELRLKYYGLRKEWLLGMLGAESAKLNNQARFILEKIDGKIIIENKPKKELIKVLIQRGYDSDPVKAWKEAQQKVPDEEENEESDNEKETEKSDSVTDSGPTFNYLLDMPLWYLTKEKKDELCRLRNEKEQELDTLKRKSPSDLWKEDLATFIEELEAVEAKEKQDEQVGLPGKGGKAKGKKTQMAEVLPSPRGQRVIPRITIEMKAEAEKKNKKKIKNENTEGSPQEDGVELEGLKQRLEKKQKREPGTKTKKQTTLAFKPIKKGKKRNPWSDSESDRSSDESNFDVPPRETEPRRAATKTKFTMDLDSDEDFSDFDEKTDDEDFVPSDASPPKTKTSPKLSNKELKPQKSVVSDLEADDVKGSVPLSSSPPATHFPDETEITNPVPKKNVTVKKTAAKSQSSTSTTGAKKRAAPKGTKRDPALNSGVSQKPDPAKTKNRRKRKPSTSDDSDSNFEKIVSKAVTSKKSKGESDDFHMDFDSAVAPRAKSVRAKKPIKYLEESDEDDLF

inhibition [2] [%] | inhibition [5] [%] | inhibition [6] [%] | inhibition [8] [%] | SMILES | IC50 [1] [µM] | IC50 [3] [µM] | IC50 [4] [µM] | IC50 [7] [µM]
0 | 32.8 | 91.3 | 11.1 | Oc1ccc(-c2cc(-c3ccc(C(F)(F)F)cc3)nc3c2Cc2c(O)cccc2-3)cc1 | > 50 | 2.01 | 2.11 | 6.54
0.2 | 79.3 | 80.2 | 3.6 | Oc1cccc(-c2cc(-c3ccccc3Cl)c3c(n2)-c2c(O)cccc2C3)c1 | 2.43 | 2.51 | 3.21 | 3.64
0.3 | 55.8 | 88.7 | 4.6 | Oc1ccc(-c2cc(-c3cccc(C(F)(F)F)c3)nc3c2Cc2cc(O)ccc2-3)cc1 | 3.47 | 1.43 | 1.9 | 4.52
6.3 | 55.9 | 93.2 | 13.8 | Oc1cccc(-c2cc(-c3ccccc3Cl)c3c(n2)-c2cc(O)ccc2C3)c1 | 2.5 | 2.91 | 2.03 | 5
– | 5.6 | 67.3 | 40.5 | Oc1cccc(-c2cc(-c3cccc(C(F)(F)F)c3)nc3c2Cc2c(O)cccc2-3)c1 | 2.69 | 1.91 | 1.62 | 4.17
– | 0 | 30.3 | 3.6 | Oc1ccc(-c2cc(-c3ccccc3Cl)nc3c2Cc2cccc(O)c2-3)cc1 | 2.97 | 0.61 | 0.19 | 2.85
– | 13.9 | 85.9 | 0 | Oc1ccc(-c2cc(-c3ccccc3C(F)(F)F)nc3c2Cc2cc(O)ccc2-3)cc1 | 2.43 | 1.05 | 2.31 | 2.07
– | 3.7 | 83 | 27 | Oc1cccc(-c2cc(-c3cccc(Cl)c3)c3c(n2)-c2ccc(O)cc2C3)c1 | 25.3 | 22.6 | 6.29 | 7.74
– | 18.6 | 76.8 | 42 | Oc1cccc(-c2cc(-c3ccc(Cl)cc3)nc3c2Cc2c(O)cccc2-3)c1 | 1.82 | 1.96 | 2.03 | 4.32
– | 3.9 | 88.7 | 38.3 | Oc1cccc(-c2cc(-c3ccccc3Cl)nc3c2Cc2ccc(O)cc2-3)c1 | 3.04 | 0.55 | 0.57 | > 50
– | 1.2 | 75.3 | 1.4 | Oc1ccc(-c2cc(-c3ccc(F)cc3)nc3c2Cc2cccc(O)c2-3)cc1 | > 50 | 24.5 | > 50 | > 50
– | 11.7 | 47.1 | 1.4 | Oc1ccc(-c2cc(-c3ccccc3F)nc3c2Cc2cccc(O)c2-3)cc1 | > 50 | 47.2 | 10.3 | > 50
– | 4.6 | 95.4 | 0 | Oc1cccc(-c2cc(-c3ccccc3)nc3c2Cc2c(O)cccc2-3)c1 | 2.52 | 2.89 | 0.19 | 6.74
– | 11.7 | 80.6 | 2.4 | Oc1cccc(-c2cc(-c3ccccc3C(F)(F)F)nc3c2Cc2cc(O)ccc2-3)c1 | 2.82 | 1.25 | 2.5 | 4
– | 8.8 | 73.6 | 1.2 | Oc1ccc(-c2cc(-c3cccc(Cl)c3)c3c(n2)-c2cc(O)ccc2C3)cc1 | 7.59 | 2.76 | 2.1 | 8.06
– | 7.7 | 98.1 | 8.9 | Oc1ccc(-c2cc(-c3ccc(Cl)cc3)c3c(n2)-c2ccc(O)cc2C3)cc1 | 18.5 | 1.51 | 1.43 | 6.83

inhibition [2] [%] | inhibition [5] [%] | inhibition [6] [%] | inhibition [8] [%] | SMILES | IC50 [1] [µM] | IC50 [3] [µM] | IC50 [4] [µM] | IC50 [7] [µM]
– | 0 | 100 | 31.9 | Oc1ccc(-c2cc(-c3cccc(Cl)c3)nc3c2Cc2cc(O)ccc2-3)cc1 | 0.75 | 1.2 | 1.2 | 1.17
– | 1.9 | 67.2 | 4 | Oc1ccc2c(c1)-c1nc(-c3ccccc3O)cc(-c3cccc(Cl)c3)c1C2 | 29.8 | 7.69 | 37.1 | 20
– | 7.4 | 85.2 | 26.5 | Oc1cccc(-c2cc(-c3ccc(Cl)cc3)nc3c2Cc2cccc(O)c2-3)c1 | 3.05 | 3.5 | 0.36 | 6.74
– | 5.2 | 90.7 | 10.5 | Oc1cccc(-c2cc(-c3cccc(C(F)(F)F)c3)nc3c2Cc2ccc(O)cc2-3)c1 | 8.61 | 1.33 | 1.54 | 4.7
– | 9.4 | 84.4 | 0 | Oc1ccc(-c2cc(-c3cccc(C(F)(F)F)c3)nc3c2Cc2c(O)cccc2-3)cc1 | 2.62 | 1.23 | 1.75 | 4.57
– | 2.1 | 54.2 | 2.1 | Oc1ccc2c(c1)Cc1c(-c3ccccc3)cc(-c3ccccc3)nc1-2 | 3.37 | 0.7 | 3.82 | 4.94
– | 0 | 83.5 | 6.9 | Oc1ccccc1-c1cc(-c2cccc(Cl)c2)nc2c1Cc1c(O)cccc1-2 | 7.47 | 0.64 | 0.56 | > 50
– | 11.9 | 80 | 7 | Oc1ccc(-c2cc(-c3ccccc3Cl)c3c(n2)-c2ccc(O)cc2C3)cc1 | 4.27 | 2.7 | 3.25 | 4.92
– | 13.6 | 92.2 | 0.9 | Oc1ccccc1-c1cc(-c2ccc(C(F)(F)F)cc2)nc2c1Cc1cccc(O)c1-2 | 3.49 | 4.2 | 4.5 | 5.24
– | 11.6 | 76.3 | 3.5 | Oc1cccc(-c2cc(-c3cccc(Cl)c3)c3c(n2)-c2cc(O)ccc2C3)c1 | 6.6 | 7.2 | 3.22 | 6.24
– | 1.2 | 72.8 | 36.9 | Oc1ccc(-c2cc(-c3cccc(Cl)c3)nc3c2Cc2c(O)cccc2-3)cc1 | 1.84 | 0.62 | 0.22 | 3.56
– | 20.9 | 54.8 | 9.3 | Oc1ccc(-c2cc(-c3ccccc3)c3c(n2)-c2cc(O)ccc2C3)cc1 | 1.43 | 3.43 | 0.57 | 2.74
– | 9.8 | 43.2 | 5.6 | Oc1cccc(-c2cc(-c3cccc(F)c3)nc3c2Cc2c(O)cccc2-3)c1 | 4.9 | 0.89 | 2.37 | 7.04
– | 9.3 | 95.7 | 8.5 | Oc1cccc(-c2cc(-c3ccc(Cl)cc3)c3c(n2)-c2c(O)cccc2C3)c1 | 14.7 | 2.22 | 4.07 | 9.01
– | 16.9 | 88.6 | 3.4 | Oc1cccc(-c2cc(-c3cccc(Cl)c3)nc3c2Cc2cccc(O)c2-3)c1 | 2.49 | 1.63 | 3.48 | 4.59
– | 4.6 | 75.7 | 1.3 | Oc1cccc2c1Cc1c(-c3ccccc3)cc(-c3ccccc3)nc1-2 | 3.39 | 1.77 | 2.71 | 4.18
